# According to patent US9695155B2, “Herbicidal substituted pyrimidinyloxy benzene compounds” (E. I. DU PONT DE NEMOURS AND COMPANY, priority 2013, dated 2017):
# What was measured:
# wheat, winter = assay: Test C preemergence; type: in vivo, Triticum aestivum; conditions: for Plant response rating, Wheat: 31 g ai/ha
# In short: (§1)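 Rated visually on 0–100 (100 = complete control) after 13–15 days under glass. Treatments went onto freshly seeded loam/sand soil or onto emerged plants at the 1- to 4-leaf stage, using a surfactant-containing solvent formulation.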
# galium = assay: Test C preemergence; type: in vivo, Galium aparine; conditions: for Plant response rating, Galium: 31 g ai/ha
# In short: as §1
# pigweed = assay: Test A preemergence; type: in vivo, Amaranthus retroflexus
# In short: (§2)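 Injury scores run from 0, no effect, to 100, complete control, judged by eye against untreated plants roughly 10 days after treatment. Chemicals carried a surfactant in a non-phytotoxic solvent and went onto loam–sand soil preemergence or onto one- to two-leaf seedlings postemergence.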
# Italian ryegrass = assay: Test C postemergence; type: in vivo, Lolium multiflorum
# In short: as §1
# waterhemp = assay: Test C preemergence; type: in vivo, Amaranthus rudis; conditions: for Plant response rating, Waterhemp: 31 g ai/ha
# In short: as §1
# corn [1] = assay: Test A preemergence; type: in vivo, Zea mays
# In short: as §2
# giant foxtail = assay: Test A postemergence; type: in vivo, Setaria faberii
# In short: as §2
# large (Lg) crabgrass = assay: Test A postemergence; type: in vivo, Digitaria sanguinalis
# In short: as §2
# corn [2] = assay: Test C postemergence; type: in vivo, Zea mays
# In short: as §1
# wheat = assay: Test A postemergence; type: in vivo, Triticum aestivum
# In short: as §2
# Heteranthera limosa = assay: Test B flooded paddy test; type: in vivo; conditions: Flood, 250 g ai/ha, 0 to 100 scale where 0 is no effect and 100 is complete control
# In short: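 Post-emergence paddy-water application at the 2-leaf stage, with 3 cm flood kept for the whole test. Response was judged visually relative to controls after 13 to 15 greenhouse days, 0 indicating no effect and 100 complete control.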
# johnsongrass = assay: Test C preemergence; type: in vivo, Sorghum halepense; conditions: for Plant response rating, Johnsongrass: 31 g ai/ha
# In short: as §1
# blackgrass = assay: Test A postemergence; type: in vivo, Alopecurus myosuroides; conditions: 0 to 100 scale where 0 is no effect and 100 is complete control
# In short: as §2
# kochia [3] = assay: Test A preemergence; type: in vivo, Kochia scoparia; conditions: 0 to 100 scale where 0 is no effect and 100 is complete control
# In short: as §2
# kochia [4] = assay: Test A postemergence; type: in vivo, Kochia scoparia; conditions: 0 to 100 scale where 0 is no effect and 100 is complete control
# In short: as §2
# [5] = 16 g ai/ha, preemergence, scale 0 to 100 (0 no effect, 100 complete control)
# [6] = 62 g ai/ha, preemergence, scale 0 (no effect) to 100 (complete control)
# [7] = 125 g ai/ha, preemergence, scale 0 (no effect) to 100 (complete control)
# [8] = Preemergence, scale 0 to 100, 0 no effect, 100 complete control
# [9] = 125 g ai/ha, 0 to 100 scale where 0 is no effect and 100 is complete control
# [10] = 500 g ai/ha, 0 to 100 scale, 0 no effect, 100 complete control, approx. 10 days
# [11] = Postemergence, 31 g ai/ha, scale 0 to 100 (0 no effect, 100 complete control), 13 to 15 days
# [12] = Postemergence, 62 g ai/ha, scale 0 to 100 (0 no effect, 100 complete control)
# [13] = 500 g ai/ha, 0 to 100 scale where 0 is no effect and 100 is complete control
# [14] = 8 g ai/ha, preemergence, scale 0 to 100 (0 no effect, 100 complete control)
compound,measurement,setting,value
N#Cc1cccc(Oc2ncc(Cl)cn2)c1-n1cc(OC(F)F)cn1 [Compound 97],Wheat plant response rating,"wheat, winter; [5]",0
same,Wheat plant response rating,"wheat, winter; [6]",60
same,Wheat plant response rating,"wheat, winter; [7]",90
same,"Plant response rating, Wheat","wheat, winter; [8]",10
same,Galium plant response rating,galium; [5],85
same,Galium plant response rating,galium; [6],98
same,Galium plant response rating,galium; [7],95
same,"Plant response rating, Galium",galium; [8],90
same,"Plant response rating, Pigweed",pigweed; [9],100
same,Pigweed plant response rating,pigweed; [10],100
same,"Plant response rating (0 to 100), Ryegrass, Italian","Italian ryegrass; 125 g ai/ha, postemergence",15
same,"Plant response rating, Ryegrass, Italian",Italian ryegrass; [11],5
same,"Plant response rating, Ryegrass, Italian",Italian ryegrass; [12],5
same,Waterhemp plant response rating,waterhemp; [5],100
same,Waterhemp plant response rating,waterhemp; [6],100
same,Waterhemp plant response rating,waterhemp; [7],100
same,"Plant response rating, Waterhemp",waterhemp; [8],100
same,"Plant response rating, Corn",corn [1]; [9],40
same,Corn plant response rating,corn [1]; [10],60
same,"Plant response rating, Foxtail, Giant",giant foxtail; [9],90
same,"Plant response rating, Foxtail, Giant",giant foxtail; [13],90
same,"Plant response rating, Crabgrass, Large",large (Lg) crabgrass; [9],90
same,"Plant response rating, Crabgrass, Large",large (Lg) crabgrass; [13],100
same,Corn plant response rating,"corn [2]; 16 g ai/ha, postemergence, visual rating, scale 0 to 100 (0 no effect, 100 complete control), 13 to 15 days",5
same,"Plant response rating (0 to 100), Corn","corn [2]; 125 g ai/ha, postemergence",15
same,"Plant response rating, Corn",corn [2]; [11],5
same,"Plant response rating, Corn",corn [2]; [12],10
same,"Plant response rating, Wheat",wheat; [9],50
same,"Plant response rating, Wheat",wheat; [13],70
same,"Plant response rating, Ducksalad",Heteranthera limosa,95
same,Johnsongrass plant response rating,johnsongrass; [5],10
same,Johnsongrass plant response rating,johnsongrass; [6],90
same,Johnsongrass plant response rating,johnsongrass; [7],90
same,"Plant response rating, Johnsongrass",johnsongrass; [8],40
N#Cc1cnn(-c2c(C#N)cccc2Oc2ncc(Br)cn2)c1 [Compound 135],Blackgrass plant response rating,blackgrass; 125 g ai/ha,30
same,"Plant response rating, Blackgrass",blackgrass; 500 g ai/ha,90
same,Wheat plant response rating,"wheat, winter; [14]",0
same,Wheat plant response rating,"wheat, winter; [5]",0
same,Wheat plant response rating,"wheat, winter; [6]",0
same,"Plant response rating, Wheat","wheat, winter; [8]",0
same,Galium plant response rating,galium; [14],0
same,Galium plant response rating,galium; [5],0
same,Galium plant response rating,galium; [6],90
same,"Plant response rating, Galium",galium; [8],80
same,"Plant response rating, Pigweed",pigweed; [9],100
same,Pigweed plant response rating,pigweed; [13],100
same,"Plant response rating, Kochia",kochia [3]; 125 g ai/ha,100
same,Kochia plant response rating,kochia [3]; 500 g ai/ha,100
same,Waterhemp plant response rating,waterhemp; [14],55
same,Waterhemp plant response rating,waterhemp; [5],75
same,Waterhemp plant response rating,waterhemp; [6],100
same,"Plant response rating, Waterhemp",waterhemp; [8],100
same,"Foxtail, Giant plant response rating",giant foxtail; [9],70
same,"Plant response rating, Foxtail, Giant",giant foxtail; [13],100
same,Kochia plant response rating,kochia [4]; 125 g ai/ha,20
same,"Plant response rating, Kochia",kochia [4]; 500 g ai/ha,70
same,Wheat plant response rating,wheat; [9],10
same,"Plant response rating, Wheat",wheat; [13],60
same,"Plant response rating, Ducksalad",Heteranthera limosa,70
same,Johnsongrass plant response rating,johnsongrass; [14],0
same,Johnsongrass plant response rating,johnsongrass; [5],0
same,Johnsongrass plant response rating,johnsongrass; [6],45
same,"Plant response rating, Johnsongrass",johnsongrass; [8],5
"N#Cc1cccc(Oc2ncc(Cl)cn2)c1-n1cc(OCC(F)(F)F)cn1 [Compound 274, 3-[(5-chloro-2-pyrimidinyl)oxy]-2-[4-(2,2,2-trifluoroethoxy)-1H-pyrazol-1-yl]benzonitrile]",plant injury at 16 g/ha,"wheat, winter; Triticum aestivum, pre-emergence, 16 g ai/ha, preemergence, scale 0 to 100 (0 no effect, 100 complete control), read-out: Wheat plant response rating",20%
same,plant injury at 125 g/ha,"wheat, winter; Triticum aestivum, pre-emergence, 125 g ai/ha, preemergence, scale 0 (no effect) to 100 (complete control), read-out: Wheat plant response rating",90%
same,plant injury at 62 g/ha,"wheat, winter; Triticum aestivum, pre-emergence, Preemergence, 62 g ai/ha, scale 0 to 100, 0 no effect, 100 complete control, read-out: Plant response rating, Wheat",90%
same,pest or weed control at 16 g/ha,"galium; Galium, pre-emergence, 16 g ai/ha, preemergence, scale 0 to 100 (0 no effect, 100 complete control), read-out: Galium plant response rating",90%
same,pest or weed control at 125 g/ha,"galium; Galium, pre-emergence, 125 g ai/ha, preemergence, scale 0 (no effect) to 100 (complete control), read-out: Galium plant response rating",98%
same,pest or weed control at 62 g/ha,"galium; Galium, pre-emergence, Preemergence, 62 g ai/ha, scale 0 to 100, 0 no effect, 100 complete control, read-out: Plant response rating, Galium",98%
same,Pigweed plant response rating (0 to 100 scale),pigweed; 125 g ai/ha,100
same,pest or weed control at 500 g/ha,"pigweed; Amaranthus retroflexus, pre-emergence, 240 h, 500 g ai/ha, 0 to 100 scale where 0 is no effect and 100 is complete control, read-out: Pigweed plant response rating",100%
same,"Ryegrass, Italian plant response rating","Italian ryegrass; 31 g ai/ha, postemergence, visual rating, scale 0 to 100 (0 no effect, 100 complete control), 13 to 15 days",5
same,pest or weed control at 16 g/ha,"Italian ryegrass; Lolium multiflorum, post-emergence, 16 g ai/ha, postemergence, 0 is no effect, 100 is complete control, read-out: Plant response rating (0 to 100), Ryegrass, Italian",5%
same,pest or weed control at 125 g/ha,"Italian ryegrass; Lolium multiflorum, post-emergence, 125 g ai/ha, postemergence, visual rating, scale 0 to 100 (0 no effect, 100 complete control), read-out: Plant response rating, Ryegrass, Italian",35%
same,pest or weed control at 62 g/ha,"Italian ryegrass; Lolium multiflorum, post-emergence, Postemergence, 62 g ai/ha, scale 0 to 100 (0 no effect, 100 complete control), 13 to 15 days, read-out: Plant response rating, Ryegrass, Italian",30%
same,pest or weed control at 16 g/ha,"waterhemp; Amaranthus tuberculatus, pre-emergence, 16 g ai/ha, preemergence, scale 0 to 100 (0 no effect, 100 complete control), read-out: Waterhemp plant response rating",100%
same,pest or weed control at 125 g/ha,"waterhemp; Amaranthus tuberculatus, pre-emergence, 125 g ai/ha, preemergence, scale 0 (no effect) to 100 (complete control), read-out: Waterhemp plant response rating",100%
same,pest or weed control at 62 g/ha,"waterhemp; Amaranthus tuberculatus, pre-emergence, Preemergence, 62 g ai/ha, scale 0 to 100, 0 no effect, 100 complete control, read-out: Plant response rating, Waterhemp",100%
same,Corn plant response rating (0 to 100 scale),corn [1]; 125 g ai/ha,50
same,plant injury at 500 g/ha,"corn [1]; Zea mays, pre-emergence, 240 h, 500 g ai/ha, 0 to 100 scale where 0 is no effect and 100 is complete control, read-out: Corn plant response rating",50%
same,pest or weed control at 125 g/ha,"giant foxtail; Setaria faberi, post-emergence, 240 h, 125 g ai/ha, 0 to 100 scale, 0 no effect, 100 complete control, read-out: Plant response rating, Foxtail, Giant",90%
same,pest or weed control at 500 g/ha,"giant foxtail; Setaria faberi, post-emergence, 240 h, 500 g ai/ha, 0 to 100 scale where 0 is no effect and 100 is complete control, read-out: Plant response rating, Foxtail, Giant",90%
same,pest or weed control at 125 g/ha,"large (Lg) crabgrass; Digitaria sanguinalis, post-emergence, 240 h, 125 g ai/ha, 0 to 100 scale, 0 no effect, 100 complete control, read-out: Plant response rating, Crabgrass, Large",90%
same,pest or weed control at 500 g/ha,"large (Lg) crabgrass; Digitaria sanguinalis, post-emergence, 240 h, 500 g ai/ha, 0 to 100 scale where 0 is no effect and 100 is complete control, read-out: Plant response rating, Crabgrass, Large",90%
same,plant injury at 16 g/ha,"corn [2]; Zea mays, post-emergence, 16 g ai/ha, postemergence, 0 is no effect, 100 is complete control, read-out: Plant response rating (0 to 100), Corn",5%
same,plant injury at 31 g/ha,"corn [2]; Zea mays, post-emergence, 31 g ai/ha, postemergence, visual rating, scale 0 to 100 (0 no effect, 100 complete control), 13 to 15 days, read-out: Corn plant response rating",10%
same,"Corn plant response rating (crop injury, 0 = no effect, 100 = complete kill) at 125 g/ha","corn [2]; Zea mays, post-emergence, 125 g ai/ha, postemergence, visual rating, scale 0 to 100 (0 no effect, 100 complete control)",15%
same,"Corn plant response rating (crop injury, 0 = no effect, 100 = complete kill) at 62 g/ha","corn [2]; Zea mays, post-emergence, Postemergence, 62 g ai/ha, scale 0 to 100 (0 no effect, 100 complete control), 13 to 15 days",10%
same,plant injury at 125 g/ha,"wheat; Triticum aestivum, post-emergence, 240 h, 125 g ai/ha, 0 to 100 scale, 0 no effect, 100 complete control, read-out: Plant response rating, Wheat",70%
same,plant injury at 500 g/ha,"wheat; Triticum aestivum, post-emergence, 240 h, 500 g ai/ha, 0 to 100 scale where 0 is no effect and 100 is complete control, read-out: Plant response rating, Wheat",80%
same,pest or weed control at 250 g/ha,"Heteranthera limosa; Heteranthera limosa, read-out: Plant response rating, Ducksalad",95%
same,pest or weed control at 16 g/ha,"johnsongrass; Sorghum halepense, pre-emergence, 16 g ai/ha, preemergence, scale 0 to 100 (0 no effect, 100 complete control), read-out: Johnsongrass plant response rating",10%
same,pest or weed control at 125 g/ha,"johnsongrass; Sorghum halepense, pre-emergence, 125 g ai/ha, preemergence, scale 0 (no effect) to 100 (complete control), read-out: Johnsongrass plant response rating",98%
same,pest or weed control at 62 g/ha,"johnsongrass; Sorghum halepense, pre-emergence, Preemergence, 62 g ai/ha, scale 0 to 100, 0 no effect, 100 complete control, read-out: Plant response rating, Johnsongrass",95%
